In patent US9079974B2, “GH-RH analogs with potent agonistic effects” (The University of Miami, priority 2011, dated 2015):
“Also recorded” adds a separate entry of the source. Each block holds one compound with its values, some of them ahead of it. Square brackets hold non-standard residues; d marks the D form. Peptide text beside a SMILES is read from it. * marks the point of attachment. Phe(F5) = N[C@@H](Cc1c(F)c(F)c(F)c(F)c1F)C(=O)O; Desaminotyrosyl = O=C(CCc1ccc(O)cc1)*; NMeY = CN[C@@H](Cc1ccc(O)cc1)C(=O)O; hArg = N=C(N)NCCCC[C@H](N)C(=O)O; Agmatine = N=C(N)NCCCCN*; Nle = CCCC[C@H](N)C(=O)O; Orn = NCCC[C@H](N)C(=O)O; Abu = CC[C@H](N)C(=O)O; GABA = NCCCC(=O)O

Key:
[1] = target: T1, GHRH receptor (Homo sapiens, UniProt Q02643); assay: GHRH receptor binding, 125I-labeled JV-1-42 ligand competition, human pituitary membrane homogenates (Table 7); details: 125I-labeled JV-1-42, human pituitary membranes
T1 construct: Normal human pituitaries were purchased from the National Hormone and Peptide Program; tissue National Hormone and Peptide Program (A. F. Parlow); host or cells: normal human pituitary, membrane fraction
T1 sequence (Q02643 23-423): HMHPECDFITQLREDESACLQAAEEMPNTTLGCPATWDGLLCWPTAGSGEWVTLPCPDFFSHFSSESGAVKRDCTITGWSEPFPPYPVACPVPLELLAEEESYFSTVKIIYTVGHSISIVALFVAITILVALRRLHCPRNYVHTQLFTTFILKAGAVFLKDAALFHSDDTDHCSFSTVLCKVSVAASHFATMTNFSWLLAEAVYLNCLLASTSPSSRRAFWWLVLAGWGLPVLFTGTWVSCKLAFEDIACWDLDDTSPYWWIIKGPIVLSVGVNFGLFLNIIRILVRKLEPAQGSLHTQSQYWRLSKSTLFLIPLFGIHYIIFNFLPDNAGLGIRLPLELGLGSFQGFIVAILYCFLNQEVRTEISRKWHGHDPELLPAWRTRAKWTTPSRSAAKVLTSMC
Method: (§1) Preparation of human pituitary membrane fraction and receptor binding of GHRH agonists were performed as previously described, by using a sensitive in vitro ligand competition assay based on binding of ^125I-labeled JV-1-42 to human pituitary membrane homogenates. Normal human pituitaries were purchased from the National Hormone and Peptide Program (A. F. Parlow, Los Angeles, County Harbor-UCLA Medical Center, Torrance, Calif.).

[2] = tested on: GH release; assay: In vivo GH release after intravenous administration; details: rat, i.v.
Method: The blood samples are centrifuged, plasma is removed and the GH level is measured by ELISA.

[3] = tested on: GH release; assay: In vivo GH release after subcutaneous administration; details: rat, s.c.
Method: Blood samples are taken from the jugular vein; 5, 15 and 30 minutes or only 15 and 30 minutes after the injection. The blood samples are centrifuged, plasma is removed and the GH level is measured by ELISA. The results are summarized in terms of potency in Table 9.

[4] = target: T1, GHRH receptor; assay: GHRH receptor binding, 125I-labeled JV-1-42 ligand competition, human pituitary membrane homogenates (Table 5)
Method: (§2) Receptor binding assay Ligand competition assay with ^125I-labeled [His^1, Nle^27]hGH-RH(1-32)-NH2 was used to determine the binding affinities of the novel hGH-RH agonists to membrane receptors of rat anterior pituitary cells. The methods used have been described in detail (Halmos G, et al. Receptor 3: 87-97, 1993), here by incorporated by reference. Briefly, radioidonated [His^1, Nle^27]hGH-RH(1-32)-NH2 is prepared by the chloramines-T method. […] IC50 is the dose of the tested peptides causing 50% inhibition of specific binding to receptors.
as §1, with “Calif.). Briefly, in competitive binding analysis, ^125I-labeled JV-1-42 (˜0.2 nM) was displaced by GHRH agonists at 10^−6 to 10^−12 M.” for “Calif.).”
The final binding affinities were expressed as IC50 values and were calculated by using the LIGAND PC computerized curve-fitting program of Munson and Rodbard as modified by McPherson.

[5] = target: T1, GHRH receptor; assay: GHRH receptor binding, [His1,125I-Tyr10,Nle27]hGHRH(1-32)NH2 ligand competition, human pituitary membrane homogenates (Table 6); details: for IC50: [His1,125I-Tyr10,Nle27]hGHRH(1-32)NH2, human pituitary membranes
Method: as §2
as §1, with “[His^1, Nle^27]hGHRH(1-32)NH2” for “JV-1-42”, “Harbor—UCLA” for “Harbor-UCLA”

[6] = given subcutaneously twice a day; cited from earlier work
[7] = target: dipeptidylpeptidase IV (DPP-IV) (Homo sapiens, UniProt P27487); details: cited from earlier work
Sequence of dipeptidylpeptidase IV (DPP-IV) (P27487 39-766 limits assumed, species assumed): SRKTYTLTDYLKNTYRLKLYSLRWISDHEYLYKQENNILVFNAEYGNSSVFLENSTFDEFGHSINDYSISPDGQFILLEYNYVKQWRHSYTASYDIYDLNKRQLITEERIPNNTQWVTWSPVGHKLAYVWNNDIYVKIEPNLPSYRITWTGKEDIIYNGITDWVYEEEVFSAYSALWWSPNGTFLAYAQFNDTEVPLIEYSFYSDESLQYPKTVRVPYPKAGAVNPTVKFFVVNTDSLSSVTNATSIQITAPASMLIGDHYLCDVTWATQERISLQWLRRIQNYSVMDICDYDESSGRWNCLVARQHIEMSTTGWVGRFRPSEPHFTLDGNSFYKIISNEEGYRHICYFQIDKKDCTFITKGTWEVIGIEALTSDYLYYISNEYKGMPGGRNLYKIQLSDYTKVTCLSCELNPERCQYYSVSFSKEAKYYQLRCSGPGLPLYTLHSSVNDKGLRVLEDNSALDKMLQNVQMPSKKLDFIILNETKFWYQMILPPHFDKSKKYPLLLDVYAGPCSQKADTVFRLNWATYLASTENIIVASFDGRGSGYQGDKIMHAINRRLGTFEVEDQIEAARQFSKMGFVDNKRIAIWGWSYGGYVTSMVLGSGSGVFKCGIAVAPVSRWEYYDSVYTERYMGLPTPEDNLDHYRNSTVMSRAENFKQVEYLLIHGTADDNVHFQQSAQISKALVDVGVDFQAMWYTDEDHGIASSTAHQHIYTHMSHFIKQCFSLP

[8] = tested on: superfused rat pituitary cells; assay: GH release in superfused rat pituitary cell system; type: cell-based; details: 1 nM
Method: Growth hormone releasing is assayed by using a superfused rat pituitary cell system as described in S. Vigh and A. V. Schally, Peptides 5, Suppl: 241-347, 1984, which is incorporated by reference herein. The new synthetic peptide analogs of hGH-RH P20356 and JI-38 as control are administered for 3 minutes (1 mL perfusate) at 1 nM concentration as shown below. Fractions of 1 ml are collected and the GH content in each is determined by ELISA. […] Effect of hGH-RH analogs (1 nM) on the GH release in superfused rat pituitary cell system
Pituitary cells from 2 male rates were used for each channel of the superfusion system. The cells were exposed to 3-min pulses of the new GHRH agonists or to JI-38 as standard every 30 min. Outflowing samples of each channel (1 ml) were collected every 3 min, and GH levels were determined by ELISA.

Compound: hGH-RH(1-29)NH2 [GHRH (1-29), reference compound]
Relative affinity (Binding potency) vs GHRH ([4]; relative to GHRH(1-29) = 1): 1
Relative affinity (Binding potency) vs GHRH ([5]; relative to GHRH(1-29) = 1): 1
share of GH-deficient children in whom linear growth was promoted [6]: approximately 50%

Compound: hGH-RH: native human GH-RH, 44 amino acids with an amidated carboxyl terminus
degradation in plasma via DPP-IV cleavage between residues 2 and 3 [7]: rapidly degraded

Compound: CCCC[C@H](NC(=O)[C@@H](NC(=O)[C@H](CC(=O)O)NC(=O)[C@H](CCC(N)=O)NC(=O)[C@H](CC(C)C)NC(=O)[C@H](CC(C)C)NC(=O)[C@H](CCCN)NC(=O)[C@H](CCCNC(=N)N)NC(=O)[C@H](C)NC(=O)[C@H](CO)NC(=O)[C@H](CC(C)C)NC(=O)[C@H](CCC(N)=O)NC(=O)[C@H](CC)NC(=O)[C@H](CC(C)C)NC(=O)[C@@H](NC(=O)[C@H](CCCN)NC(=O)[C@H](CCCNC(=N)N)NC(=O)[C@H](Cc1ccc(O)cc1)NC(=O)[C@H](CO)NC(=O)[C@@H](NC(=O)[C@@H](NC(=O)[C@H](Cc1ccccc1)NC(=O)[C@@H](NC(=O)[C@H](C)NC(=O)[C@H](CC(=O)O)NC(=O)[C@H](C)NC(=O)CCc1ccc(O)cc1)[C@@H](C)CC)[C@@H](C)O)[C@@H](C)O)C(C)C)[C@@H](C)CC)C(=O)N[C@@H](CC(=O)O)C(=O)NCCCCNC(=N)N [JI-36, reference compound] (Desaminotyrosyl-ADAIFTTSYR[Orn]VL[Abu]QLSAR[Orn]LLQDI[Nle]D-Agmatine; N-terminus and C-terminus assumed)
IC50 [5]: 1.82 nM

Compound: CCCC[C@H](NC(=O)[C@@H](NC(=O)[C@H](CC(=O)O)NC(=O)[C@H](CCC(N)=O)NC(=O)[C@H](CC(C)C)NC(=O)[C@H](CC(C)C)NC(=O)[C@H](CCCN)NC(=O)[C@H](CCCNC(=N)N)NC(=O)[C@H](C)NC(=O)[C@H](CO)NC(=O)[C@H](CC(C)C)NC(=O)[C@H](CCC(N)=O)NC(=O)[C@H](CC)NC(=O)[C@H](CC(C)C)NC(=O)[C@@H](NC(=O)[C@H](CCCN)NC(=O)[C@H](CCCNC(=N)N)NC(=O)[C@H](Cc1ccc(O)cc1)NC(=O)[C@H](CO)NC(=O)[C@H](CCC(N)=O)NC(=O)[C@@H](NC(=O)[C@H](Cc1ccccc1)NC(=O)[C@@H](NC(=O)[C@H](C)NC(=O)[C@H](CC(=O)O)NC(=O)[C@H](C)NC(=O)[C@H](Cc1ccc(O)cc1)NC)[C@@H](C)CC)[C@@H](C)O)C(C)C)[C@@H](C)CC)C(=O)N[C@@H](CC(=O)O)C(=O)NCCCCNC(=N)N [Peptide P-20356, [N—Me-Tyr^1, Gln^8, Orn^12, Abu^15, Orn^21, Nle^27, Asp^28, Agm^29]hGH-RH(1-29)] (H-[NMeY]ADAIFTQSYR[Orn]VL[Abu]QLSAR[Orn]LLQDI[Nle]D-Agmatine)
times more potent in vitro than JI-38 (GH release) [8]: about 3 times
GH response after subcutaneous administration (in words) [3]: unusually high responses; also recorded: especially greater growth hormone levels than hGH-RH or JI-38

Second part, led by results:

IC50 [1]: 0.16 nM
Compound: CCCC[C@H](NC(=O)[C@@H](NC(=O)[C@H](CC(=O)O)NC(=O)[C@H](CCC(N)=O)NC(=O)[C@H](CC(C)C)NC(=O)[C@H](CC(C)C)NC(=O)[C@H](CCCN)NC(=O)[C@H](CCCNC(=N)N)NC(=O)[C@H](C)NC(=O)[C@H](CO)NC(=O)[C@H](CC(C)C)NC(=O)[C@H](CCC(N)=O)NC(=O)[C@H](CC)NC(=O)[C@H](CC(C)C)NC(=O)[C@@H](NC(=O)[C@H](CCCN)NC(=O)[C@H](CCCNC(=N)N)NC(=O)[C@H](Cc1ccc(O)cc1)NC(=O)[C@H](CO)NC(=O)[C@H](CCC(N)=O)NC(=O)[C@@H](NC(=O)[C@H](Cc1ccccc1)NC(=O)[C@@H](NC(=O)[C@H](C)NC(=O)[C@H](CC(=O)O)NC(=O)[C@@H](C)NC(=O)[C@H](Cc1ccc(O)cc1)NC)[C@@H](C)CC)[C@@H](C)O)C(C)C)[C@@H](C)CC)C(=O)N[C@@H](CC(=O)O)C(=O)N[C@@H](CCCNC(=N)N)C(=O)NC [Peptide P-27403, [N—Me-Tyr^1, D-Ala^2, Gln^8, Orn^12, Abu^15, Orn^21, Nle^27, Asp^28]hGH-RH(1-29)NH—CH3] (H-[NMeY][dA]DAIFTQSYR[Orn]VL[Abu]QLSAR[Orn]LLQDI[Nle]DR-NHMe)
GH response after intravenous administration (in words) [2]: most potent
GH response after subcutaneous administration (in words) [3]: unusually high responses; also recorded: especially greater growth hormone levels than hGH-RH or JI-38

IC50 ([4]; 125I-labeled JV-1-42, human pituitary membranes): 0.07 nM
IC50 [1]: 0.33 nM
Compound: CCCC[C@H](NC(=O)[C@@H](NC(=O)[C@H](CC(=O)O)NC(=O)[C@H](CCC(N)=O)NC(=O)[C@H](CC(C)C)NC(=O)[C@H](CC(C)C)NC(=O)[C@H](CCCN)NC(=O)[C@H](CCCNC(=N)N)NC(=O)[C@H](C)NC(=O)[C@H](CO)NC(=O)[C@H](CC(C)C)NC(=O)[C@H](CCC(N)=O)NC(=O)[C@H](CC)NC(=O)[C@H](CC(C)C)NC(=O)[C@@H](NC(=O)[C@H](CCCN)NC(=O)[C@H](CCCNC(=N)N)NC(=O)[C@H](Cc1ccc(O)cc1)NC(=O)[C@H](CO)NC(=O)[C@H](CC(N)=O)NC(=O)[C@@H](NC(=O)[C@H](Cc1c(F)c(F)c(F)c(F)c1F)NC(=O)[C@@H](NC(=O)[C@H](C)NC(=O)[C@H](CC(=O)O)NC(=O)[C@@H](C)NC(=O)CCc1ccc(O)cc1)[C@@H](C)CC)[C@@H](C)O)C(C)C)[C@@H](C)CC)C(=O)N[C@@H](CO)C(=O)N[C@@H](CCCNC(=N)N)C(=O)NCCCC(N)=O [Peptide P-25502, [Dat^1, D-Ala^2, Fpa5^6, Orn^12, Abu^15, Orn^21, Nle^27, Gab^30]hGH-RH(1-30)NH2] (Desaminotyrosyl-[dA]DAI[Phe(F5)]TNSYR[Orn]VL[Abu]QLSAR[Orn]LLQDI[Nle]SR[GABA]-NH2)
GH response after intravenous administration (in words) [2]: most potent
GH response after subcutaneous administration (in words) [3]: unusually high responses; also recorded: especially greater growth hormone levels than hGH-RH or JI-38

IC50 [5]: 0.04 nM
Compound: CCCC[C@H](NC(=O)[C@@H](NC(=O)[C@H](CC(=O)O)NC(=O)[C@H](CCC(N)=O)NC(=O)[C@H](CC(C)C)NC(=O)[C@H](CC(C)C)NC(=O)[C@H](CCCN)NC(=O)[C@H](CCCNC(=N)N)NC(=O)[C@H](C)NC(=O)[C@H](CO)NC(=O)[C@H](CC(C)C)NC(=O)[C@H](CCC(N)=O)NC(=O)[C@H](CC)NC(=O)[C@H](CC(C)C)NC(=O)[C@@H](NC(=O)[C@H](CCCN)NC(=O)[C@H](CCCNC(=N)N)NC(=O)[C@H](Cc1ccc(O)cc1)NC(=O)[C@H](CO)NC(=O)[C@H](C)NC(=O)[C@@H](NC(=O)[C@H](Cc1ccccc1)NC(=O)[C@@H](NC(=O)[C@H](C)NC(=O)[C@H](CC(=O)O)NC(=O)[C@@H](C)NC(=O)CCc1ccc(O)cc1)[C@@H](C)CC)[C@@H](C)O)C(C)C)[C@@H](C)CC)C(=O)N[C@@H](CC(=O)O)C(=O)N[C@@H](CCCNC(=N)N)C(=O)N[C@@H](CCCCNC(=N)N)C(N)=O [Peptide P-23256, [Dat^1, D-Ala^2, Ala^8, Orn^12, Abu^15, Orn^21, Nle^27, Asp^28, Har^30]hGH-RH(1-30)NH2] (Desaminotyrosyl-[dA]DAIFTASYR[Orn]VL[Abu]QLSAR[Orn]LLQDI[Nle]DR[hArg]-NH2)
